Measured values published in the supplement of paper PMC11208160.

Assay: recombinant UMI read abundance after kanamycin selection (control-corrected) (log10(CPM+1)); higher = more efficient recombination; extreme values may be limits of the assay; sequences stand for … in AGTGCAGAGAAAATCGGCCAGTTTTCTCTGCCTGCAGTCCGCATGCCGTGGGACCCCTTGGGTTCTAACCTGTTGCCTAGATTTATGCAGCGGACTGCCTTTCTCCCAAAGTGATAAACCGG…AGGTTGGTTTCACT; site = the 11-nt donor
Summary of the method: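 Counts of recombinant UMIs were reported as log10(CPM+1). Before that, they were converted to CPM, averaged over replicates and scaled using control-derived factors. They came from PCR across the donor–target junction after Escherichia coli carrying the pair library and target plasmid was plated on IPTG (0.07 mM) plus kanamycin, or unselected, in two replicates each.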
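Further: IS621 bridge recombinase in Escherichia coli cells against a fixed T5 target plasmid.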

Sequence	recombinant UMI read abundance (log10)
CCGATATCATGGACCGGTTTTCCCGGTAATCCGTATTTGTC (site CCGATATCTGA)	1.21
CCGATATCATGGACCGGTTTTCCCGGTAATCCGTATTTGTC (site CCTATATCTGA)	0
CCGATGCCATGGACCGGTTTTCCCGGTAATCCGTATTTGGA (site CCGATGCCTTC)	0.0103
CCGATTCCATGGACCGGTTTTCCCGGTAATCCGTATTTGTT (site CCGATTCCTAA)	0
CCGATTCCATGGACCGGTTTTCCCGGTAATCCGTATTTGTT (site CGGAATCCTAA)	0.00507
CCGCAGTCATGGACCGGTTTTCCCGGTAATCCGTATTTGGC (site CCGCAGTCTGC)	0
CCGCATACATGGACCGGTTTTCCCGGTAATCCGTATTTGTT (site CCGCATACTAA)	0.39
CCGGAAGCATGGACCGGTTTTCCCGGTAATCCGTATTTGAC (site CCGGAAGCTGT)	0.161
CCGGTAGCATGGACCGGTTTTCCCGGTAATCCGTATTTGAC (site CCGGTAGCTGT)	2.38
CCGGTATCATGGACCGGTTTTCCCGGTAATCCGTATTTGAC (site CCGGTATCTGT)	1.45
CCGGTATCATGGACCGGTTTTCCCGGTAATCCGTATTTGAC (site CTAGTATCTGT)	0
CCGGTGGCATGGACCGGTTTTCCCGGTAATCCGTATTTGAC (site CCGGTGGCTGT)	1.58
CCGTCAGCATGGACCGGTTTTCCCGGTAATCCGTATTTGTG (site CCGTAAGCTCA)	0
CCGTCAGCATGGACCGGTTTTCCCGGTAATCCGTATTTGTG (site CCGTCAGCTCA)	0.00531
CCGTCAGCATGGACCGGTTTTCCCGGTAATCCGTATTTGTG (site CCGTGAGCTCA)	0.00599
CCGTCAGCATGGACCGGTTTTCCCGGTAATCCGTATTTGTG (site CCGTTAGCTCA)	0.00541
CCGTCATCATGGACCGGTTTTCCCGGTAATCCGTATTTGCT (site CCGTCATCTAG)	0
CCGTCATCATGGACCGGTTTTCCCGGTAATCCGTATTTGCT (site CGATCATCTAG)	0.00968
CCGTCGCCATGGACCGGTTTTCCCGGTAATCCGTATTTGAT (site CCGTCGCCTAT)	0.00407
CCGTCGGCATGGACCGGTTTTCCCGGTAATCCGTATTTGTG (site CCGTCGGCTCA)	0.0197
CCGTGAGCATGGACCGGTTTTCCCGGTAATCCGTATTTGTG (site CCGTAAGCTCA)	0.0763
CCGTGAGCATGGACCGGTTTTCCCGGTAATCCGTATTTGTG (site CCGTCAGCTCA)	0
CCGTGAGCATGGACCGGTTTTCCCGGTAATCCGTATTTGTG (site CCGTGAGCTCA)	0.568
CCGTGAGCATGGACCGGTTTTCCCGGTAATCCGTATTTGTG (site CCGTTAGCTCA)	0.00536
CCGTTAGCATGGACCGGTTTTCCCGGTAATCCGTATTTGTG (site ACGTTAGCTCA)	0.0114

Sequence	recombinant UMI read abundance (log10)
CCGTTAGCATGGACCGGTTTTCCCGGTAATCCGTATTTGTG (site CAGTTAGCTCA)	0.00951
CCGTTAGCATGGACCGGTTTTCCCGGTAATCCGTATTTGTG (site CCATTAGCTCA)	0.434
CCGTTAGCATGGACCGGTTTTCCCGGTAATCCGTATTTGTG (site CCCTTAGCTCA)	0.0161
CCGTTAGCATGGACCGGTTTTCCCGGTAATCCGTATTTGTG (site CCGATAGCTCA)	0.0175
CCGTTAGCATGGACCGGTTTTCCCGGTAATCCGTATTTGTG (site CCGCTAGCTCA)	0.00432
CCGTTAGCATGGACCGGTTTTCCCGGTAATCCGTATTTGTG (site CCGGTAGCTCA)	0.014
CCGTTAGCATGGACCGGTTTTCCCGGTAATCCGTATTTGTG (site CCGTAAGCTCA)	0.00568
CCGTTAGCATGGACCGGTTTTCCCGGTAATCCGTATTTGTG (site CCGTCAGCTCA)	0.0147
CCGTTAGCATGGACCGGTTTTCCCGGTAATCCGTATTTGTG (site CCGTGAGCTCA)	0.0389
CCGTTAGCATGGACCGGTTTTCCCGGTAATCCGTATTTGTG (site CCGTTAACTCA)	0.0199
CCGTTAGCATGGACCGGTTTTCCCGGTAATCCGTATTTGTG (site CCGTTACCTCA)	0
CCGTTAGCATGGACCGGTTTTCCCGGTAATCCGTATTTGTG (site CCGTTAGCTAA)	0.0124
CCGTTAGCATGGACCGGTTTTCCCGGTAATCCGTATTTGTG (site CCGTTAGCTCA)	0.386
CCGTTAGCATGGACCGGTTTTCCCGGTAATCCGTATTTGTG (site CCGTTAGCTCC)	0.0262
CCGTTAGCATGGACCGGTTTTCCCGGTAATCCGTATTTGTG (site CCGTTAGCTCG)	0
CCGTTAGCATGGACCGGTTTTCCCGGTAATCCGTATTTGTG (site CCGTTAGCTCT)	0
CCGTTAGCATGGACCGGTTTTCCCGGTAATCCGTATTTGTG (site CCGTTAGCTGA)	0
CCGTTAGCATGGACCGGTTTTCCCGGTAATCCGTATTTGTG (site CCGTTAGCTTA)	0
CCGTTAGCATGGACCGGTTTTCCCGGTAATCCGTATTTGTG (site CCGTTATCTCA)	0
CCGTTAGCATGGACCGGTTTTCCCGGTAATCCGTATTTGTG (site CCGTTCGCTCA)	0
CCGTTAGCATGGACCGGTTTTCCCGGTAATCCGTATTTGTG (site CCGTTGGCTCA)	0.0165
CCGTTAGCATGGACCGGTTTTCCCGGTAATCCGTATTTGTG (site CCGTTTGCTCA)	0.00521
CCGTTAGCATGGACCGGTTTTCCCGGTAATCCGTATTTGTG (site CCTTTAGCTCA)	0.015
CCGTTAGCATGGACCGGTTTTCCCGGTAATCCGTATTTGTG (site CGGTTAGCTCA)	0.00954
CCGTTAGCATGGACCGGTTTTCCCGGTAATCCGTATTTGTG (site CTGTTAGCTCA)	0.164

Sequence	recombinant UMI read abundance (log10)
CCGTTAGCATGGACCGGTTTTCCCGGTAATCCGTATTTGTG (site GCGTTAGCTCA)	0
CCGTTAGCATGGACCGGTTTTCCCGGTAATCCGTATTTGTG (site TCGTTAGCTCA)	0.00762
CCGTTCGCATGGACCGGTTTTCCCGGTAATCCGTATTTGTA (site CCGTTCGCTTA)	0.827
CCGTTCTCATGGACCGGTTTTCCCGGTAATCCGTATTTGGG (site CCATTCTCTCC)	0.00249
CCGTTCTCATGGACCGGTTTTCCCGGTAATCCGTATTTGGG (site CCCTTCTCTCC)	0
CCGTTCTCATGGACCGGTTTTCCCGGTAATCCGTATTTGGG (site CCGTTCTCTCC)	0
CCGTTCTCATGGACCGGTTTTCCCGGTAATCCGTATTTGGG (site CCTTTCTCTCC)	0
CCGTTGACATGGACCGGTTTTCCCGGTAATCCGTATTTGCT (site CCGTTAACTAG)	0
CCGTTGACATGGACCGGTTTTCCCGGTAATCCGTATTTGCT (site CCGTTCACTAG)	0
CCGTTGACATGGACCGGTTTTCCCGGTAATCCGTATTTGCT (site CCGTTGACTAG)	1.05
CCGTTGACATGGACCGGTTTTCCCGGTAATCCGTATTTGCT (site CCGTTTACTAG)	0
CCGTTTACATGGACCGGTTTTCCCGGTAATCCGTATTTGCC (site CCGTTTACTAG)	0
CCGTTTACATGGACCGGTTTTCCCGGTAATCCGTATTTGCC (site CCGTTTACTCG)	0
CCGTTTACATGGACCGGTTTTCCCGGTAATCCGTATTTGCC (site CCGTTTACTGG)	0
CCGTTTACATGGACCGGTTTTCCCGGTAATCCGTATTTGCC (site CCGTTTACTTG)	0
CCGTTTACATGGACCGGTTTTCCCGGTAATCCGTATTTGTT (site CCGTTTACTAA)	0.175
CCGTTTACATGGACCGGTTTTCCCGGTAATCCGTATTTGTT (site CCGTTTACTAC)	0
CCGTTTACATGGACCGGTTTTCCCGGTAATCCGTATTTGTT (site CCGTTTACTAG)	0
CCGTTTACATGGACCGGTTTTCCCGGTAATCCGTATTTGTT (site CCGTTTACTAT)	0
CCGTTTGCATGGACCGGTTTTCCCGGTAATCCGTATTTGCT (site CCGTTTACTAG)	0
CCGTTTGCATGGACCGGTTTTCCCGGTAATCCGTATTTGCT (site CCGTTTCCTAG)	0
CCGTTTGCATGGACCGGTTTTCCCGGTAATCCGTATTTGCT (site CCGTTTGCTAG)	0
CCGTTTGCATGGACCGGTTTTCCCGGTAATCCGTATTTGCT (site CCGTTTTCTAG)	0
CCGTTTGCATGGACCGGTTTTCCCGGTAATCCGTATTTGGT (site CCGTTTGCTAC)	0.48
CCTAAACCATGGACCGGTTTTCCCGGTAATCCGTATTTGAT (site CCTAAAACTAT)	0
